{
  "source": "patent US11672871B2",
  "about": "“Peptide oligonucleotide conjugates” (Sarepta Therapeutics, Inc., priority 2015, dated 2023)",
  "system": "HeLa-654 cells",
  "test": "HeLa cell assay: e-GFP fluorescence from exon skipping / cellular delivery, by flow cytometry",
  "type": "cell-based",
  "conditions": "Accuri C6 flow cytometer, signal reflects exon skipping and cellular uptake",
  "method": "The height of the green fluorescent signal bars indicate different intensities based on the level of exon skipping that occurs in the nucleus of HeLa-654 cells, whether the cells are treated or untreated with test compounds. The signal intensity or size of the bar also corresponds to the effectiveness of cellular uptake (that is, delivery into the cell). […] The various treatment regimens include continuous treatment of HeLa-654 cells over time or pulse-chase treatments where a test compound is incubated with cells and then after a period of time (3 hours) is washed away from the cells and fresh, test compound-free media is added.\nResults: The baseline activity of unconjugated PMO and untreated cells is shown. The peptide/PMO (PPMO) conjugates of the present disclosure all show greater cellular uptake than: 1) unconjugated PMO, and 2) untreated cells (which reveal the green fluorescent background signal). This difference in fluorescence intensity between the peptide/PMO conjugates of the present invention and the background or unconjugated-PMO indicates significant pharmacological activity of the stapled peptide/PMO conjugates.",
  "data": [
    {"substance": "PPMO 3: (i, i+4) hexafluorobenzene-stapled peptide-PMO conjugate, sequence SEQ ID NO: 9 (GCTATTACCTTAACCCAG; all phosphorodiamidate morpholino (PMO); stapled cell-penetrating peptide conjugated to PMO)", "values": [
      {"measurement": "Mean FL1-H (mean fluorescence intensity of e-GFP)", "result": "123,401.08"}
    ]}
  ]
}
